Measurements: patent US10786505B2, “Administration of NEDD8-activating enzyme inhibitor and chemotherapeutic agents” (Millennium Pharmaceuticals, Inc., priority 2013, dated 2020)

Assays:
LU1143 xenograft model = assay: Combination of docetaxel or carboplatin and MLN4924 in LU1143 xenograft model; type: in vivo, mice; conditions: 50 mg/kg carboplatin QW IP
Method: (§1) Docetaxel (Henry Schein, Inc., Pittsburgh Pa., Qilu Pharmaceutical Co., Ltd., Jinan, Shandong, China, and Sanofi-Aventis) is formulated in 0.9% saline and administered by intravenous injection (IV) once weekly (QW) at 5 mg/kg or 10 mg/kg.
(§2) Carboplatin (CARBOplatin Injection, Hospira, Inc., Qilu Pharmaceutical Co., Ltd. Jinan, Shandong, China, and Teva Gry-Pharma GmbH, Ulm, Germany) is formulated in 0.9% saline and administered by IP injection once weekly (QW) at 50 mg/kg. The once weekly schedule is also described as every 7 days (Q7D).
(§3) Tumors are measured twice weekly using a vernier caliper. Tumor volumes are calculated using standard procedures (0.5×(length×width^2)). […] Tumor size and body weight are measured approximately twice a week for the duration of the study. Mice are euthanized when their tumor volume reached 10% of their body weight, or when the average tumor volume of a treatment or control group reached approximately 2000 mm^3. Tumor growth continued to be monitored after the dosing period in some studies. Average tumor volume is reported as a function of time for selected groups of selected studies in Figures A, B, and C.
Measurements from day 0 to 18, 21 or 22 are analyzed as specified in Tables 4-9. All tumor volumes have a value of 1 added to them before log10 transformation. For each animal, the log tumor volume at day 0 is subtracted from the log tumor volume on the subsequent days. This difference vs. time is used to calculate an area under the curve (AUC) for each animal using the trapezoid rule. […] The synergy score for the combination of agents A and B is defined as 100*(mean(AUCAB)−mean(AUCA)−mean(AUCB)+mean(AUCctl))/mean(AUCctl): where AUCAB, AUCA, AUCB, and AUCctl are the AUC values for animals in the combination group, the A group, the B group, and the control group, respectively. The standard error of the synergy score is computed based on the variation in the AUC values among the animals. […] If the P-value is above 0.05, then the combination is considered to be additive. […]

LXFE409 xenograft model = assay: Combination of docetaxel or carboplatin and MLN4924 in LXFE409 xenograft model; type: in vivo, mice; conditions: LXFE409 xenograft; 50 mg/kg carboplatin QW IP
Method: LXFE409 squamous non small cell lung cancer tumor fragments are implanted into the subcutaneous space in the flank of female NMRI nu/nu mice (5-7 weeks, Janvier Labs, Saint Berthevin, France).
as §1, §2, §3
(§4) Measurements from day 0 to 18, 21 or 22 are analyzed as specified in Tables 4-9. All tumor volumes have a value of 1 added to them before log10 transformation. For each animal, the log tumor volume at day 0 is subtracted from the log tumor volume on the subsequent days. This difference vs. time is used to calculate an area under the curve (AUC) for each animal using the trapezoid rule. […] The synergy score for the combination of agents A and B is defined as 100*(mean(AUCAB)−mean(AUCA)−mean(AUCB)+mean(AUCctl))/mean(AUCctl): where AUCAB, AUCA, AUCB, and AUCctl are the AUC values for animals in the combination group, the A group, the B group, and the control group, respectively. The standard error of the synergy score is computed based on the variation in the AUC values among the animals. […] If the P-value is above 0.05, then the combination is considered to be additive. If the P-value is below 0.05, and the synergy score is less than zero, then the combination is considered to be synergistic. […] Otherwise, the combination is classified as antagonistic.

NCI-H69 xenograft model = assay: Combination of carboplatin and MLN4924 in NCI-H69 xenograft model; type: in vivo, mice
Method: NCI-H69 or NCI-H82 small cell lung tumor fragments (30- to 40-mg) are implanted into the subcutaneous space in the area of the right flank of NCr nu/nu mice (7-10 weeks, Charles River Laboratories, Inc, Frederick Md. or Wilmington, Mass.) using a 12-gauge trocar.
as §2, §3, §4

NCI-H510 = assay: In vitro cell viability combination assay (CellTiter-Glo); conditions: agent combined with MLN4924, vehicle DMSO, 96 hr
LK-2 = assay: as above; type: cell-based; conditions: agent combined with MLN4924, vehicle PBS, 72 hr
Excerpt: (§5) After normalization, the controls are discarded.
(§6) Otherwise, the classification is “Additivity”.

HARA = assay: as above; type: cell-based; conditions: agent combined with MLN4924, vehicle PBS, 72 hr
Excerpt: as §5, §6

EBC-1 = assay: as above; type: cell-based; conditions: agent combined with MLN4924, vehicle PBS, 72 hr
Excerpt: as §5, §6

NCI-H69 = assay: as above; type: cell-based; conditions: agent combined with MLN4924, vehicle DMSO, 96 hr
Excerpt: as §5, §6

VMRC-LCP = assay: as above; type: cell-based; conditions: agent combined with MLN4924, vehicle PBS, 72 hr
Excerpt: as §5, §6

NCI-H2170 = assay: as above; type: cell-based; conditions: agent combined with MLN4924, vehicle PBS, 72 hr
Excerpt: as §5, §6

SW900 = assay: as above; type: cell-based; conditions: agent combined with MLN4924, vehicle PBS, 72 hr
Excerpt: as §5, §6

CHAGO-K-1 = assay: as above; type: cell-based; conditions: agent combined with MLN4924, vehicle PBS, 72 hr
Excerpt: as §5, §6

SK-MES-1 = assay: as above; type: cell-based; conditions: agent combined with MLN4924, vehicle PBS, 72 hr
Excerpt: as §5, §6

SW1573 = assay: as above; type: cell-based; conditions: agent combined with MLN4924, vehicle PBS, 72 hr
Excerpt: as §5, §6

NCI-H596 = assay: as above; type: cell-based; conditions: agent combined with MLN4924, vehicle PBS, 72 hr
Excerpt: as §5, §6

LUDLU-1 = assay: as above; type: cell-based; conditions: agent combined with MLN4924, vehicle PBS, 72 hr
Excerpt: as §5, §6

NCI-H520 = assay: as above; type: cell-based; conditions: agent combined with MLN4924, vehicle PBS, 72 hr
Excerpt: as §5, §6

KNS-62 = assay: as above; type: cell-based; conditions: agent combined with MLN4924, vehicle PBS, 72 hr
Excerpt: as §5, §6

NCI-H1703 = assay: as above; type: cell-based; conditions: agent combined with MLN4924, vehicle PBS, 72 hr
Excerpt: as §5, §6

RERF-LC-SQ1 = assay: as above; type: cell-based; conditions: agent combined with MLN4924, vehicle PBS, 72 hr
Excerpt: as §5, §6

NCI-H1299 = assay: as above; type: cell-based; conditions: agent combined with MLN4924, vehicle PBS, 72 hr
Excerpt: as §5, §6

CALU-1 = assay: as above; type: cell-based; conditions: agent combined with MLN4924, vehicle PBS, 72 hr
Excerpt: as §5, §6

LC-1-SQ = assay: as above; type: cell-based; conditions: agent combined with MLN4924, vehicle PBS, 72 hr
Excerpt: as §5, §6

NCI-H209 = assay: as above; conditions: agent combined with MLN4924, vehicle DMSO, 96 hr
Method: (§7) General Method: Cells are grown in their respective growth media, supplemented with 10% fetal bovine serum unless otherwise noted. […] A portion of each plate is used for positive controls (no agent is added), while another portion of each plate is used for negative controls (no cells are added). Viability is assessed with CellTiter-Glo® Cell Viability reagent used according to manufacturer's instructions (Promega). Luminescence is measured using a LEADseeker imaging system (GE Healthcare).
(§8) The viability data is normalized separately for each plate by scaling the data so that the median of the negative controls is 0 and the median of the positive controls is 100. More formally,
(§9) [formula] where Vi is the normalized viability of the i^th well, Ui is the raw viability measurement, median (U) is the median of the negative controls, and median (U+) is the median of the positive controls. After normalization, the controls are discarded.
(§10) where E1, E2, E3, E4, I1, I2, I3, S1, S2, S3, and S4 are parameters, CA and CB are the respective concentrations of agents A and B, and V is the normalized viability measurement. It is assumed that the error values are independent and identically distributed normal random variables.
(§11) The Combination Index is computed based on an isobologram, which is a slice of the dose response surface with constant viability. For the present analysis, the 50% isobologram, which is the dose contour that has 50% viability, is used. […] Since the choice of (DA, DB) can be arbitrary, the constraint DA/DB=EC50A/EC50B is used.
(§12) In such cases, Nonlinear Blending can be used as an alternative measure of synergy or additivity. Nonlinear Blending is found by considering a slice of the dose response surface that intersects both concentration axes and runs parallel to the viability axis. Let VA and VB be the viability where the slice intersects the drug A and B axes, respectively. Let Vmax and Vmin be the maximum and minimum viabilities along the slice. Let NLBS=min(VA,VB)−Vmin NLBA=Vmax−max(VA,VB) Define the Nonlinear Blending value to be NLBS if NLBS>NLBA and −NLBA otherwise.
(§13) After completing the analysis of individual plates, the results are combined across the replicates. For a given measure and a set of replicates, the overall mean and standard error are computed using weighted averaging. A null mean, which corresponded to an additive effect, is then compared with the overall mean. The null mean is 1 for the Combination Index and 0 for Nonlinear Blending. Next, a two sized Z-test is performed based on the estimated mean and standard error. This produces a p-value for each measure and each cell line.
(§14) After computing the mean, standard error, and p-value for each set of replicates, these values require interpretation. Thus, a standard procedure is used to produce a classification (synergy, additivity, subadditivity, antagonism, or inconclusive) in each case. If the Combination Index exists for more than half of the replicates, then these measures are used to make the classification.
(§15) Consider the case where the Combination Index is used to make the classification. If the p-value is greater than 0.05, the estimate for the Combination Index is not statistically different from 1. However, if the standard error is also very large, then the estimate is too uncertain to be informative. […] Otherwise, the classification is “Additivity”. When the p-value is less than 0.05, the estimate for the Combination Index is statistically different from 1. However, if the mean is still close to 1, then the difference is not of practical significance. Thus, the result is classified based on the mean. A mean in the range (0.8, 1.2) is considered close enough to 1 to be classified as Additivity. A mean in the range (0, 0.8) is considered low enough to be classified as Synergy. […] The threshold value of 2 can be derived from the definition of the Combination Index.

NCI-H82 = assay: as above; conditions: agent combined with MLN4924, vehicle DMSO, 96 hr
Method: as §7, §8, §9, §10, §11, §12, §13, §14, §15

A549 = assay: as above; conditions: agent combined with MLN4924, vehicle PBS, 72 hr
Method: as §7, §8, §9, §10, §11, §12, §13, §14, §15

NCI-H526 = assay: as above; conditions: agent combined with MLN4924, vehicle DMSO, 96 hr
Method: as §7, §8, §9, §10, §11, §12, §13, §14, §15

HCT116 = assay: as above; conditions: agent combined with MLN4924, vehicle PBS, 48 hr
Method: as §7, §8, §9, §10, §11, §12, §13, §14, §15

Compound: N.N.O=C([O-])C1(C(=O)[O-])CCC1.[Pt+2] [carboplatin]
- average tumor volume day 21 (LU1143 xenograft model): 658.7 mm^3
- average tumor volume day 21 (LXFE409 xenograft model): 204.4 mm^3
- average tumor volume day 21 (NCI-H69 xenograft model; 50 mg/kg carboplatin QW IP): 501.3 mm^3
- tumor growth during the treatment period (in words) (NCI-H69 xenograft model; FIG. 3, MLN4924 SC 120 mg/kg BID Q3Dx2/week, carboplatin 50 mg/kg IP QW, single agents or their combination): inhibited tumor growth compared to the control vehicle group
- Combination Index (NCI-H510): 0.81 ± 0.08
- Nonlinear Blending (NCI-H510): 5 ± 2
- Combination Index (LK-2): 0.66 ± 0.05
- Nonlinear Blending (LK-2): 15 ± 2
- Combination Index (HARA): 1.06 ± 0.1
- Nonlinear Blending (HARA): −3 ± 10
- Combination Index (EBC-1): 1.24 ± 0.06
- Nonlinear Blending (EBC-1): −7 ± 1
- Combination Index (NCI-H69): 1.18 ± 0.09
- Nonlinear Blending (NCI-H69): −5 ± 1
- Combination Index (VMRC-LCP): 1.00 ± 0.04
- Nonlinear Blending (VMRC-LCP): −3 ± 1
- Combination Index (NCI-H2170): 1.38 ± 0.1
- Nonlinear Blending (NCI-H2170): −19 ± 7
- Combination Index (SW900): 0.85 ± 0.06
- Nonlinear Blending (SW900): 10 ± 1
- Combination Index (CHAGO-K-1): 0.88 ± 0.03
- Nonlinear Blending (CHAGO-K-1): 11 ± 1
- Combination Index (SK-MES-1): 1.32 ± 0.06
- Nonlinear Blending (SK-MES-1): −22 ± 4
- Nonlinear Blending (SW1573): 6 ± 5
- Combination Index (NCI-H596): 0.59 ± 0.1
- Nonlinear Blending (NCI-H596): 10 ± 7
- Combination Index (LUDLU-1): 0.84 ± 0.2
- Nonlinear Blending (LUDLU-1): 5 ± 5
- Nonlinear Blending (NCI-H520): 9 ± 20
- Combination Index (KNS-62): 0.82 ± 0.1
- Nonlinear Blending (KNS-62): 10 ± 5
- Combination Index (NCI-H1703): 1.31 ± 0.02
- Nonlinear Blending (NCI-H1703): −23 ± 2
- Combination Index (RERF-LC-SQ1): 0.77 ± 0.06
- Nonlinear Blending (RERF-LC-SQ1): 11 ± 1
- Combination Index (NCI-H1299): 1.10 ± 0.05
- Nonlinear Blending (NCI-H1299): −8 ± 2
- Combination Index (CALU-1): 0.78 ± 0.05
- Nonlinear Blending (CALU-1): 11 ± 6
- Combination Index (LC-1-SQ): 0.51 ± 0.04
- Nonlinear Blending (LC-1-SQ): 28 ± 2
- Combination Index (NCI-H209): 1.00 ± 0.06
- Nonlinear Blending (NCI-H209): −1 ± 1
- Combination Index (NCI-H82): 0.65 ± 0.1
- Nonlinear Blending (NCI-H82): 12 ± 2
- Combination Index (A549): 0.72 ± 0.05
- Nonlinear Blending (A549): 8 ± 4
- Combination Index (NCI-H526): 1.02 ± 0.1
- Nonlinear Blending (NCI-H526): 0 ± 2
- Combination Index (HCT116): 0.71 ± 0.03
- Nonlinear Blending (HCT116): 19 ± 2
